According to patent US20250051356A1, “RIFABUTIN ANALOGS FOR THE TREATMENT OF DISEASE” (priority 2021, published 2025):
Converted amounts (≈) assume the structure as drawn. Where two headings read alike, the source gives them in different places.

Key:
Format in all cases: cell-based
M. kansasii (ATCC 12478) = experiment: MIC against M. kansasii in CAMHB + ADC; conditions: Mycobacterium kansasii
[1] = tested on: M. abscessus subsp. abscessus ATCC 19977; experiment: MIC against M. abscessus in Middlebrook 7H9 + ADC; conditions: Mycobacteroides abscessus
M. xenopi (ATCC 19250) = experiment: MIC against M. xenopi in CAMHB + ADC; conditions: Mycobacterium xenopi, ATCC19250; ATCC 19250; CAMHB + ADC (5%); read-out: MIC M. xenopi
[2] = tested on: A. baumannii (HUMC1 strain); experiment: MIC by broth microdilution against A. baumannii in RPMI + 10% FCS; conditions: Acinetobacter baumannii, read-out: MIC A. baumannii
M. avium (ATCC 25291) = experiment: MIC against M. avium in CAMHB + ADC; conditions: Mycobacterium avium, ATCC25291; ATCC 25291; CAMHB + ADC (5%); read-out: MIC M. avium
[3] = tested on: S. aureus (UAMS-1625 strain); experiment: MIC by broth microdilution against S. aureus; conditions: Staphylococcus aureus, read-out: MIC S. aureus
[4] = ATCC19977, ATCC 19977, 7H9 + ADC, read-out: MIC M. abscessus

Compound | MIC (M. kansasii (ATCC 12478); ATCC12478, ATCC 12478, CAMHB + ADC (5%), read-out: MIC M. kansasii) | MIC [1, 4] | MIC (M. xenopi (ATCC 19250)) | MIC ([2]; HUMC1 strain, RPMI + 10% FCS) | MIC (M. avium (ATCC 25291)) | MIC [3] | MIC ([1]; ATCC19977, read-out: MIC M. abscessus) | MIC [2] | MIC (M. kansasii (ATCC 12478); ATCC12478, read-out: MIC M. kansasii)
CO[C@H]1/C=C/O[C@@]2(C)Oc3c(C)c(O)c4c(c3C2=O)C2=NC3(CCN(CC(C)C)CC3)NC2=C(NC(=O)/C(C)=C\C=C\[C@H](C)[C@H](O)[C@@H](C)[C@@H](O)[C@@H](C)[C@H](OC(=O)CC(=O)N2CCN(c3ccccc3)CC2)[C@@H]1C)C4=O [Compound 11] | 0.008 µg/mL | 0.125 µg/mL | 0.06 µg/mL | 0.016 µg/mL | 0.125 µg/mL | 0.25 µg/mL (≈ 0.241 µM) |  |  | 
CO[C@H]1/C=C/O[C@@]2(C)Oc3c(C)c(O)c4c(c3C2=O)C2=NC3(CCN(CC(C)C)CC3)NC2=C(NC(=O)/C(C)=C\C=C\[C@H](C)[C@H](O)[C@@H](C)[C@@H](O)[C@@H](C)[C@H](OC(=O)CC(=O)N2CCC(n3c(=O)[nH]c5cc(Cl)ccc53)CC2)[C@@H]1C)C4=O [Compound 47] |  | 0.5 µg/mL |  | 0.125 µg/mL |  | 1 µg/mL (≈ 0.889 µM) |  |  | 
CO[C@H]1/C=C/O[C@@]2(C)Oc3c(C)c(O)c4c(c3C2=O)C2=NC3(CCN(CC(C)C)CC3)NC2=C(NC(=O)/C(C)=C\C=C\[C@H](C)[C@H](O)[C@@H](C)[C@@H](O)[C@@H](C)[C@H](OC(=O)CC(=O)N2CCC3(CC2)C(=O)NCN3c2ccccc2)[C@@H]1C)C4=O [Compound 48] |  | 0.5 µg/mL |  | 0.03 µg/mL |  | 0.25 µg/mL (≈ 0.226 µM) |  |  | 
COc1cc(CC2CCN(C(=O)CC(=O)O[C@H]3[C@H](C)[C@H](O)[C@H](C)[C@@H](O)[C@@H](C)/C=C/C=C(/C)C(=O)NC4=C5NC6(CCN(CC(C)C)CC6)N=C5c5c(c(O)c(C)c6c5C(=O)[C@@](C)(O/C=C/[C@H](OC)[C@H]3C)O6)C4=O)CC2)cc(C(F)(F)F)c1 [Compound 51] |  | 1 µg/mL |  | 0.06 µg/mL |  | 2 µg/mL (≈ 1.74 µM) |  |  | 
CO[C@H]1/C=C/O[C@@]2(C)Oc3c(C)c(O)c4c(c3C2=O)C2=NC3(CCN(CC(C)C)CC3)NC2=C(NC(=O)/C(C)=C\C=C\[C@H](C)[C@H](O)[C@@H](C)[C@@H](O)[C@@H](C)[C@H](OC(=O)CC(=O)N2CCC([C@@H](O)c3nccn3C)CC2)[C@@H]1C)C4=O [Compound 53] |  | 1 µg/mL |  | ≤ 0.002 µg/mL |  | 0.125 µg/mL (≈ 0.117 µM) |  |  | 
CO[C@H]1/C=C/O[C@@]2(C)Oc3c(C)c(O)c4c(c3C2=O)C2=NC3(CCN(CC(C)C)CC3)NC2=C(NC(=O)/C(C)=C\C=C\[C@H](C)[C@H](O)[C@@H](C)[C@@H](O)[C@@H](C)[C@H](OC(=O)CC(=O)N2CCC(N3CCCCC3)CC2)[C@@H]1C)C4=O [Compound 58] |  | 1 µg/mL |  | ≤ 0.002 µg/mL |  | 0.03 µg/mL (≈ 0.0288 µM) |  |  | 
CO[C@H]1/C=C/O[C@@]2(C)Oc3c(C)c(O)c4c(c3C2=O)C2=NC3(CCN(CC(C)C)CC3)NC2=C(NC(=O)/C(C)=C\C=C\[C@H](C)[C@H](O)[C@@H](C)[C@@H](O)[C@@H](C)[C@H](OC(=O)CC(=O)N2CCC(NC(=O)OC(C)(C)C)CC2)[C@@H]1C)C4=O [Compound 59] |  | 0.5 µg/mL |  | 0.008 µg/mL |  | 0.125 µg/mL (≈ 0.116 µM) |  |  | 
CO[C@H]1/C=C/O[C@@]2(C)Oc3c(C)c(O)c4c(c3C2=O)C2=NC3(CCN(CC(C)C)CC3)NC2=C(NC(=O)/C(C)=C\C=C\[C@H](C)[C@H](O)[C@@H](C)[C@@H](O)[C@@H](C)[C@H](OC(=O)CC(=O)N2CCC(n3cccn3)CC2)[C@@H]1C)C4=O [Compound 60] |  | 0.5 µg/mL |  | ≤ 0.002 µg/mL |  | 0.03 µg/mL (≈ 0.0293 µM) |  |  | 
CO[C@H]1/C=C/O[C@@]2(C)Oc3c(C)c(O)c4c(c3C2=O)C2=NC3(CCN(CC(C)C)CC3)NC2=C(NC(=O)/C(C)=C\C=C\[C@H](C)[C@H](O)[C@@H](C)[C@@H](O)[C@@H](C)[C@H](OC(=O)CC(=O)N2CCC(NS(=O)(=O)c3ccccc3)CC2)[C@@H]1C)C4=O [Compound 61] |  |  |  |  |  | 0.125 µg/mL (≈ 0.112 µM) | 0.5 µg/mL | 0.008 µg/mL | 
CO[C@H]1/C=C/O[C@@]2(C)Oc3c(C)c(O)c4c(c3C2=O)C2=NC3(CCN(CC(C)C)CC3)NC2=C(NC(=O)/C(C)=C\C=C\[C@H](C)[C@H](O)[C@@H](C)[C@@H](O)[C@@H](C)[C@H](OC(=O)CC(=O)N2CCC(N3CCn5ccnc5C3)CC2)[C@@H]1C)C4=O [Compound 62] |  | 1 µg/mL |  | ≤ 0.002 µg/mL |  | 0.06 µg/mL (≈ 0.0556 µM) |  |  | 
CO[C@H]1/C=C/O[C@@]2(C)Oc3c(C)c(O)c4c(c3C2=O)C2=NC3(CCN(CC(C)C)CC3)NC2=C(NC(=O)/C(C)=C\C=C\[C@H](C)[C@H](O)[C@@H](C)[C@@H](O)[C@@H](C)[C@H](OC(=O)CC(=O)N2CC(Nc3ccc(F)cc3)C2)[C@@H]1C)C4=O [Compound 63] |  | 0.5 µg/mL |  | 0.016 µg/mL |  | 0.25 µg/mL (≈ 0.241 µM) |  |  | 
CO[C@H]1/C=C/O[C@@]2(C)Oc3c(C)c(O)c4c(c3C2=O)C2=NC3(CCN(CC(C)C)CC3)NC2=C(NC(=O)/C(C)=C\C=C\[C@H](C)[C@H](O)[C@@H](C)[C@@H](O)[C@@H](C)[C@H](OC(=O)CC(=O)N2CC(n3ccnn3)C2)[C@@H]1C)C4=O [Compound 64] |  | 1 µg/mL |  | ≤ 0.002 µg/mL |  | 0.06 µg/mL (≈ 0.0602 µM) |  |  | 
CO[C@H]1/C=C/O[C@@]2(C)Oc3c(C)c(O)c4c(c3C2=O)C2=NC3(CCN(CC(C)C)CC3)NC2=C(NC(=O)/C(C)=C\C=C\[C@H](C)[C@H](O)[C@@H](C)[C@@H](O)[C@@H](C)[C@H](OC(=O)CC(=O)N2CCc3[nH]c5ccccc5c3C2)[C@@H]1C)C4=O [Compound 65] |  | 0.5 µg/mL |  | 0.016 µg/mL |  | 0.125 µg/mL (≈ 0.12 µM) |  |  | 
CO[C@H]1/C=C/O[C@@]2(C)Oc3c(C)c(O)c4c(c3C2=O)C2=NC3(CCN(CC(C)C)CC3)NC2=C(NC(=O)/C(C)=C\C=C\[C@H](C)[C@H](O)[C@@H](C)[C@@H](O)[C@@H](C)[C@H](OC(=O)CCC(=O)NCCN(C)C)[C@@H]1C)C4=O [Compound 72] |  | 1 µg/mL |  | ≤ 0.002 µg/mL |  | 0.06 µg/mL (≈ 0.0615 µM) |  |  | 
CO[C@H]1/C=C/O[C@@]2(C)Oc3c(C)c(O)c4c(c3C2=O)C2=NC3(CCN(CC(C)C)CC3)NC2=C(NC(=O)/C(C)=C\C=C\[C@H](C)[C@H](O)[C@@H](C)[C@@H](O)[C@@H](C)[C@H](OC(=O)CCC(=O)OCC2CCCN(C)C2)[C@@H]1C)C4=O (some centres unmarked) [Compound 73] |  | 1 µg/mL |  | ≤ 0.002 µg/mL |  | 0.06 µg/mL (≈ 0.059 µM) |  |  | 
CO[C@H]1/C=C/O[C@@]2(C)Oc3c(C)c(O)c4c(c3C2=O)C2=NC3(CCN(CC(C)C)CC3)NC2=C(NC(=O)/C(C)=C\C=C\[C@H](C)[C@H](O)[C@@H](C)[C@@H](O)[C@@H](C)[C@H](OC(=O)CCCC(=O)OCC2CCCN(C)C2)[C@@H]1C)C4=O (some centres unmarked) [Compound 74] |  | 1 µg/mL |  | ≤ 0.002 µg/mL |  | 0.06 µg/mL (≈ 0.0582 µM) |  |  | 
CO[C@H]1/C=C/O[C@@]2(C)Oc3c(C)c(O)c4c(c3C2=O)C2=NC3(CCN(CC(C)C)CC3)NC2=C(NC(=O)/C(C)=C\C=C\[C@H](C)[C@H](O)[C@@H](C)[C@@H](O)[C@@H](C)[C@H](OC(=O)CCCC(=O)OC2CCN(C)C2)[C@@H]1C)C4=O (some centres unmarked) [Compound 77] |  | 0.5 µg/mL |  | ≤ 0.002 µg/mL |  | 0.06 µg/mL (≈ 0.0599 µM) |  |  | 
CO[C@H]1/C=C/OC2(C)Oc3c(C)c(O)c4c(c3C2=O)C2=NC3(CCN(CC(C)C)CC3)NC2=C(NC(=O)/C(C)=C\C=C\[C@H](C)[C@H](O)[C@@H](C)[C@@H](O)[C@@H](C)[C@H](OC(=O)CC(=O)N2CCn3c2nc2ccccc23)[C@@H]1C)C4=O (some centres unmarked) [Compound 89] |  | 0.5 µg/mL |  | 0.016 µg/mL |  | 0.125 µg/mL (≈ 0.121 µM) |  |  | 
CO[C@H]1/C=C/O[C@@]2(C)Oc3c(C)c(O)c4c(c3C2=O)C2=NC3(CCN(CC(C)C)CC3)NC2=C(NC(=O)/C(C)=C\C=C\[C@H](C)[C@H](O)[C@@H](C)[C@@H](O)[C@@H](C)[C@H](OC(=O)CC(=O)N2CCN(C3CN(C)C3)CC2)[C@@H]1C)C4=O [Compound 111] |  | 0.5 µg/mL |  | 0.06 µg/mL |  | 0.125 µg/mL (≈ 0.122 µM) |  |  | 
CO[C@H]1/C=C/O[C@@]2(C)Oc3c(C)c(O)c4c(c3C2=O)C2=NC3(CCN(CC(C)C)CC3)NC2=C(NC(=O)/C(C)=C\C=C\[C@H](C)[C@H](O)[C@@H](C)[C@@H](O)[C@@H](C)[C@H](OC(=O)CC(=O)N2CCN(C3CCN(C)CC3)CC2)[C@@H]1C)C4=O [Compound 112] |  | 1 µg/mL |  | 0.004 µg/mL |  | 0.125 µg/mL (≈ 0.118 µM) |  |  | 
CO[C@H]1/C=C/O[C@@]2(C)Oc3c(C)c(O)c4c(c3C2=O)C2=NC3(CCN(CC(C)C)CC3)NC2=C(NC(=O)/C(C)=C\C=C\[C@H](C)[C@H](O)[C@@H](C)[C@@H](O)[C@@H](C)[C@H](OC(=O)CC(=O)N2CCN(CCN(C)C)CC2)[C@@H]1C)C4=O [Compound 113] |  | 0.5 µg/mL |  | 0.06 µg/mL |  | 0.06 µg/mL (≈ 0.0582 µM) |  |  | 
CO[C@H]1/C=C/O[C@@]2(C)Oc3c(C)c(O)c4c(c3C2=O)C2=NC3(CCN(CC(C)C)CC3)NC2=C(NC(=O)/C(C)=C\C=C\[C@H](C)[C@H](O)[C@@H](C)[C@@H](O)[C@@H](C)[C@H](OC(=O)CC(=O)N2CCN(CCN3CCCCC3)CC2)[C@@H]1C)C4=O [Compound 114] |  | 0.5 µg/mL |  | ≤ 0.002 µg/mL |  | 0.125 µg/mL (≈ 0.117 µM) |  |  | 
CO[C@H]1/C=C/O[C@@]2(C)Oc3c(C)c(O)c4c(c3C2=O)C2=NC3(CCN(CC(C)C)CC3)NC2=C(NC(=O)/C(C)=C\C=C\[C@H](C)[C@H](O)[C@@H](C)[C@@H](O)[C@@H](C)[C@H](OC(=O)CC(=O)N2CCN(CCN3CCOCC3)CC2)[C@@H]1C)C4=O [Compound 115] |  | 0.5 µg/mL |  | ≤ 0.002 µg/mL |  | 0.06 µg/mL (≈ 0.056 µM) |  |  | 
CO[C@H]1/C=C/O[C@@]2(C)Oc3c(C)c(O)c4c(c3C2=O)C2=NC3(CCN(CC(C)C)CC3)NC2=C(NC(=O)/C(C)=C\C=C\[C@H](C)[C@H](O)[C@@H](C)[C@@H](O)[C@@H](C)[C@H](OC(=O)CC(=O)N2CCCN(c3ccncc3)CC2)[C@@H]1C)C4=O [Compound 121] |  | 0.25 µg/mL |  | ≤ 0.002 µg/mL | 2 µg/mL | 0.125 µg/mL (≈ 0.119 µM) |  |  | 0.125 µg/mL
